# Assay: pKa value was determined
# Format: physicochemical
row,pKa,Structure (SMILES)
1,6.7,O=C(O)CCCCc1cc(=O)oc2c(CN3CCCC3)c(O)ccc12
2,6.6,O=C(O)CCCCc1cc(=O)oc2c(CN3CCCCC3)c(O)ccc12
3,6.6,CCN(CC)Cc1c(O)ccc2c(CCCCC(=O)O)cc(=O)oc12
4,7.8,O=C(O)CCCCc1cc(=O)oc2cc(O)ccc12

# From ChEMBL document CHEMBL1130497, “Novel 7-hydroxycoumarin based fluorescent labels” (Bioorg Med Chem Lett, 1997)
